The values below come from patent US8901105B2, “Prodrug derivatives of (E)-N-methyl-N-((3-M ethylbenzofuran-2-yl)methyl)-3-(7-oxo-5,6,7,8-tetrahydro-1,8-naphthyridin-3-yl)acrylamide” (Affinium Pharmaceuticals, Inc., priority 2012, dated 2014).

Holding throughout (format): physicochemical
A short description of data set [1]: Aqueous solubility of salts at 25° C. To be noted: for Comments (behaviour in solubility experiment): water, 25° C., disodium salt.
Data set [2] can be described thus: Solid-state stability (HPLC % area after storage). The conditions noted are these: for Solid-state stability % Area: 4 weeks. The method, then: (§1) Various compounds disclosed herein have been placed on long-term solid-state stability protocol. The compounds were stored in glass vials closed with PTFE lined caps at 30° C./65% RH, 40° C./75% RH, 50° C. and 60° C. (ambient humidity). The results of the study after 4 weeks are shown in Table B1 and after 3 months in Table B2. Appearance and purity analysis were conducted using HPLC and XPRD. The HPLC analyses were conducted using standard equipment such as a Agilent HP1100 HPLC (Station ID: LZPES HPLC 04) with YMC-Pack ODS-AQ sub 3 μm, 150×4.6 mm

The nature of data set [3]: Photostability of solid salts.
Data set [4] can be described thus: XRPD crystal form after storage. The conditions noted are these: 4 weeks storage. The method, then: as §1, with “mm Samples were prepared for XRPD by sprinkling ˜20 mg onto a Si wafer zero background plate and pressing the material flat to ensure the surface is smooth and level. The samples were analyzed according the equipment parameters below.” for “mm”

Each structure is given as a SMILES string.

The term solubility denotes the concentration that dissolves in the medium under given conditions.

Turning to `Cc1c(CN(C)C(=O)/C=C/c2cnc3c(c2)CCC(=O)N3COP(=O)([O-])[O-])oc2ccccc12.[Na+].[Na+]` [Compound 9], the solubility in data set [1] (aqueous buffer, pH 6.6, aqueous buffer, thermodynamic from solid, originally amorphous, crystallized within 7 days in aqueous buffer, pH 6.6-7.1, read-out: solubility after crystallization in aqueous buffer) was less than 5000 µg/mL. For the same molecule, the “Comments (behaviour in solubility experiment)” value in data set [1] is “Forms gels”; in data set [1] (listed as bis-sodium), “formed unwieldy gels”. Moreover, the “Solid-state stability % Area” value in data set [2] (30° C./65% RH) turned out to be 96.3 % Area; in data set [2] (40° C./75% RH), 84.4 % Area; in data set [2] (50° C./ambient humidity), 86.8 % Area; in data set [2] (60° C./ambient humidity), 85.9 % Area; in data set [2] (Control (ambient lab conditions protected from light)), 96.4 % Area. The chemical stability entry in data set [2] (over 1 month at 30° C./65% RH, closed vials, light protected) is on record as “chemically stable”. Moreover, the “Control % Area (Table C)” value in data set [3] (control sample at ambient lab conditions protected from light) was 96.4 % Area. Further, the “Photo-stability % Area” value in data set [3] (exposed to 60% of ICH minimum) is 55.9 % Area. Further, the “change in XRPD” value in data set [4] is “no change”.
